Experimental data from US20180179177A1, “N-ACYLIMINO HETEROCYCLIC COMPOUNDS FOR CONTROLLING INVERTEBRATE PESTS” (BASF SE, priority 2014, published 2018).

What was measured:
Type in all cases: in vivo
[1] = system: vetch aphid (Megoura viciae); experiment: Vetch aphid control, contact or systemic, broad bean leaf disks; conditions: foliar, 120 h, aphid mortality after 5 days, read-out: mortality in comparison with untreated controls
Method: B.3 Vetch Aphid (Megoura viciae)
For evaluating control of vetch aphid (Megoura viciae) through contact or systemic means the test unit consisted of 24-well-microtiter plates containing broad bean leaf disks.
The compounds were formulated using a solution containing 75% v/v water and 25% v/v DMSO. Different concentrations of formulated compounds were sprayed onto the leaf disks at 2.5 μl, using a custom built micro atomizer, at two replications.
After application, the leaf disks were air-dried and 5-8 adult aphids were placed on the leaf disks inside the microtiter plate wells. The aphids were then allowed to suck on the treated leaf disks and were incubated at about 23±10C and about 50±5% relative humidity for 5 days. Aphid mortality and fecundity was then visually assessed.

[2] = system: green peach aphid (Myzus persicae); experiment: Green peach aphid control, systemic, artificial diet under membrane; conditions: 72 h, aphid mortality after 3 days, read-out: mortality in comparison with untreated controls
Source text: B.4 Green Peach Aphid (Myzus persicae)
For evaluating control of green peach aphid (Myzuspersicae) through systemic means, the test unit consists of 96-well-microtiter plates containing liquid artificial diet under an artificial membrane.
The compounds are formulated using a solution containing 75% v/v water and 25% v/v DMSO. Different concentrations of formulated compounds are pipetted into the aphid diet, using a custom built pipetter, at two replications.
After application, 5-8 adult aphids are placed on the artificial membrane inside the microtiter plate wells. The aphids are then allowed to suck on the treated aphid diet and incubated at about 23±10C and about 50±5% relative humidity for 3 days. Aphid mortality and fecundity is then visually assessed.

[3] = system: Cowpea aphid (Aphis craccivora); experiment: Cowpea aphid test, sprayed potted cowpea plants; conditions: after 72 hours, read-out: mortality in comparison with untreated controls
Method: B.6 Cowpea Aphid (Aphis craccivora)
(§1) The active compound is dissolved at the desired concentration in a mixture of 1:1 (vol:vol) distilled water:acetone. Surfactant (Alkamuls® EL 620) is added at a rate of 0.1% (vol/vol). The test solution is prepared at the day of use.
Potted cowpea plants are colonized with approximately 50-100 aphids of various stages by manually transferring a leaf tissue cut from infested plant 24 hours before application. Plants are sprayed after the pest population has been recorded. Treated plants are maintained on light carts at about 28° C. Percent mortality is assessed after 72 hours.

[4] = system: Mediterranean fruitfly (Ceratitis capitata); experiment: Mediterranean fruitfly control, insect diet in microtiter plates; conditions: 120 h, egg and larval mortality after 5 days, read-out: mortality in comparison with untreated controls
Method: B.2 Mediterranean Fruitfly (Ceratitis capitata)
For evaluating control of Mediterranean fruitfly (Ceratitis capitata) the test unit consisted of microtiter plates containing an insect diet and 50-80 C. capitata eggs. The compounds were formulated using a solution containing 75% v/v water and 25% v/v DMSO. Different concentrations of formulated compounds were sprayed onto the insect diet at 5 μl, using a custom built micro atomizer, at two replications.
After application, microtiter plates were incubated at about 28±1° C. and about 80±5% relative humidity for 5 days. Egg and larval mortality was then visually assessed.

[5] = system: Orchid thrips (Dichromothrips corbetti); experiment: Orchid thrips floral-immersion test; conditions: 72 hours after treatment, read-out: mortality in comparison with untreated controls
Method: B.5 Orchid Thrips (Dichromothrips Corbetti)
Dichromothrips corbetti adults used for bioassay are obtained from a colony maintained continuously under laboratory conditions. For testing purposes, the test compound is diluted in a 1:1 mixture of acetone:water (vol:vol), plus 0.01% vol/vol Alkamuls® EL 620 surfactant.
Thrips potency of each compound is evaluated by using a floral-immersion technique. Plastic petri dishes are used as test arenas. All petals of individual, intact orchid flowers are dipped into treatment solution and allowed to dry. Treated flowers are placed into individual petri dishes along with about 20 adult thrips. The petri dishes are then covered with lids. All test arenas are held under continuous light and a temperature of about 28° C. for duration of the assay. After 3 days, the numbers of live thrips are counted on each flower, and along inner walls of each petri dish. The percent mortality is recorded 72 hours after treatment.

[6] = system: Rice green leafhopper (Nephotettix virescens); experiment: Rice green leafhopper test, sprayed rice seedlings; conditions: after 72 hours, read-out: mortality in comparison with untreated controls
Method: B.7 Rice Green Leafhopper (Nephotettix virescens)
(§2) Rice seedlings are cleaned and washed 24 hours before spraying. The active compounds are formulated in 50:50 acetone:water (vol:vol), and 0.1% vol/vol surfactant (EL 620) is added. Potted rice seedlings are sprayed with 5 ml test solution, air dried, placed in cages and inoculated with 10 adults. Treated rice plants are kept at about 28-29° C. and relative humidity of about 50-60%. Percent mortality is recorded after 72 hours.

[7] = system: Cotton aphid (Aphis gossypih); experiment: Cotton aphid test, sprayed potted plants; conditions: after 72 hours, read-out: mortality in comparison with untreated controls
Method: B.11 Cotton Aphid (Aphis gossypih)
as §1
Potted cowpea plants were colonized with approximately 50-100 aphids of various stages by manually transferring a leaf tissue cut from infested plant 24 hours before application. Plants were sprayed after the pest population has been recorded. Treated plants are maintained on light carts at about 28° C. Percent mortality was assessed after 72 hours.

[8] = system: Silverleaf whitefly (Bemisia argentifolii); experiment: Silverleaf whitefly test, sprayed cotton plants; conditions: 72 h, 3 days after treatment, adults, read-out: mortality in comparison with untreated controls
Source text: B.12 Silverleaf Whitefly (Bemisia argentifolii)
(§3) The active compounds are formulated in cyclohexanone as a 10,000 ppm solution supplied in tubes. The tubes are inserted into an automated electrostatic sprayer equipped with an atomizing nozzle and they serve as stock solutions for which lower dilutions are made in 50% acetone:50% water (v/v). A nonionic surfactant (Kinetic®) is included in the solution at a volume of 0.01% (v/v).
Cotton plants at the cotyledon stage (one plant per pot) are sprayed by an automated electrostatic plant sprayer equipped with an atomizing spray nozzle. The plants are dried in the sprayer fume hood and then removed from the sprayer. Each pot is placed into a plastic cup and about 10 to 12 whitefly adults (approximately 3-5 days old) are introduced. The insects are collected using an aspirator and a nontoxic Tygon® tubing connected to a barrier pipette tip. The tip, containing the collected insects, is then gently inserted into the soil containing the treated plant, allowing insects to crawl out of the tip to reach the foliage for feeding. Cups are covered with a reusable screened lid. […] Mortality is assessed 3 days after treatment, compared to untreated control plants.

[9] = system: boll weevil (Anthonomus grandis); experiment: Boll weevil control, insect diet in 96-well microtiter plates; conditions: 120 h, egg and larval mortality after 5 days, read-out: mortality in comparison with untreated controls
Method: B.1 Boll Weevil (Anthonomus grandis)
For evaluating control of boll weevil (Anthonomus grandis) the test unit consisted of 96-well-microtiter plates containing an insect diet and 5-10 A. grandis eggs.
The compounds were formulated using a solution containing 75% v/v water and 25% v/v DMSO. Different concentrations of formulated compounds were sprayed onto the insect diet at 5 μl, using a custom built micro atomizer, at two replications.
After application, microtiter plates were incubated at about 25±10C and about 75±5% relative humidity for 5 days. Egg and larval mortality was then visually assessed.

[10] = system: Green soldier stink bug (Nezara viridula); experiment: Green soldier stink bug test, sprayed soybean pods; conditions: 120 h, after 5 days, 3rd instar, read-out: mortality in comparison with untreated controls
Method: B.8 Green Soldier Stink Bug (Nezara viridula)
The active compound is dissolved at the desired concentration in a mixture of 1:1 (vol:vol) distilled water:aceteone. Surfactant (Kinetic HV) is added at a rate of 0.01% (vol/vol). The test solution is prepared at the day of use.
Soybean pods were placed in microwavable plastic cups lined with moist filter paper and inoculated with ten 3rd instar N. viridula. Using a hand atomizer, approximately 2 ml solution is sprayed into each cup. Treated cups were kept at about 28-29° C. and relative humidity of about 50-60%. Percent mortality was recorded after 5 days.

[11] = system: Rice brown plant hopper (Nilaparvata lugens); experiment: Rice brown plant hopper test, sprayed rice seedlings; conditions: after 72 hours, read-out: mortality in comparison with untreated controls
Method: B.9 Rice Brown Plant Hopper (Nilaparvata lugens)
as §2, with “compounds is” for “compounds are”, “acetone:water (vol:vol)” for “acetone:water (vol:vol),”, “620) was” for “620) is”

[12] = system: Diamond back moth (Plutella xylostella); experiment: Diamond back moth test, dipped cabbage leaves; conditions: 72 hours after treatment, 3rd instar larvae, read-out: mortality in comparison with untreated controls
Method: B.10 Diamond Back Moth (Plutella xylostella)
The active compound is dissolved at the desired concentration in a mixture of 1:1 (vol:vol) distilled water:aceteone. Surfactant (Alkamuls® EL 620) is added at a rate of 0.1% (vol/vol). The test solution is prepared at the day of use.
Leaves of cabbage were dipped in test solution and air-dried. Treated leaves were placed in petri dish eslined with moist filter paper and inoculated with ten 3rd instar larvae. Mortality was recorded 72 hours after treatment. Feeding damages were also recorded using a scale of 0-100%.

[13] = system: Southern armyworm (Spodoptera eridania); experiment: Southern armyworm test, sprayed lima bean plants; conditions: 96 h, 4 days after treatment, larvae, read-out: mortality in comparison with untreated controls
Method: B.13 Southern Armyworm (Spodoptera eridania)
as §3, with “were” for “are”, “served” for “serve”, “was” for “is”
Lima bean plants (variety Sieva) were grown 2 plants to a pot and selected for treatment at the 1st true leaf stage. Test solutions were sprayed onto the foliage by an automated electrostatic plant sprayer equipped with an atomizing spray nozzle. The plants were dried in the sprayer fume hood and then removed from the sprayer. Each pot was placed into perforated plastic bags with a zip closure. About 10 to 11 armyworm larvae were placed into the bag and the bags zipped closed. Test plants were maintained in a growth room at about 250C and about 20-40% relative humidity for 4 days, avoiding direct exposure to fluorescent light (24 hour photoperiod) to prevent trapping of heat inside the bags. Mortality and reduced feeding were assessed 4 days after treatment, compared to untreated control plants.

| SMILES | mortality at 2500 ppm [1] [%] | mortality at 2500 ppm [2] [%] | mortality at 500 ppm [3] [%] | mortality at 2500 ppm [4] [%] | mortality at 500 ppm [5] [%] | mortality at 500 ppm [6] [%] | mortality at 500 ppm [7] [%] | mortality at 500 ppm [8] [%] | mortality at 2500 ppm [9] [%] | mortality at 500 ppm [10] [%] | mortality at 500 ppm [11] [%] | mortality at 500 ppm [12] [%] | mortality at 500 ppm [13] [%] |
| --- | --- | --- | --- | --- | --- | --- | --- | --- | --- | --- | --- | --- | --- |
| O=C(/N=c1\ccccn1Cc1ccc(Cl)nc1)C1([N+](=O)[O-])CC1c1ccccc1 (stereo not drawn) [Compound E2.3] | ≥ 75 | ≥ 75 | ≥ 75 | – | – | – | – | – | – | – | – | – | – |
| CC(C)/C=C(/C(=O)/N=c1\ccccn1Cc1ccc(Cl)nc1)[N+](=O)[O-] [Compound E3.1] | ≥ 75 | ≥ 75 | ≥ 75 | ≥ 75 | ≥ 75 | ≥ 75 | > 75 | ≥ 75 | – | – | – | – | – |
| O=C(C[N+](=O)[O-])/N=c1\ccccn1Cc1ccc(Cl)nc1 [Compound E1.4] | ≥ 75 | ≥ 75 | ≥ 75 | ≥ 75 | ≥ 75 | ≥ 75 | > 75 | ≥ 75 | ≥ 75 | > 75 | ≥ 75 | > 75 | ≥ 75 |
